The values that follow come from publication PMC7335359, “Design and Synthesis of Dihydroxamic Acids as HDAC6/8/10 Inhibitors” (Chemmedchem, 2020).

A value given as a limit tells only on which side of the number the result lay.

Test [1] has as its target T1, HDAC10 (Homo sapiens, UniProt Q969S8).
T1 sequence (Q969S8 1-669): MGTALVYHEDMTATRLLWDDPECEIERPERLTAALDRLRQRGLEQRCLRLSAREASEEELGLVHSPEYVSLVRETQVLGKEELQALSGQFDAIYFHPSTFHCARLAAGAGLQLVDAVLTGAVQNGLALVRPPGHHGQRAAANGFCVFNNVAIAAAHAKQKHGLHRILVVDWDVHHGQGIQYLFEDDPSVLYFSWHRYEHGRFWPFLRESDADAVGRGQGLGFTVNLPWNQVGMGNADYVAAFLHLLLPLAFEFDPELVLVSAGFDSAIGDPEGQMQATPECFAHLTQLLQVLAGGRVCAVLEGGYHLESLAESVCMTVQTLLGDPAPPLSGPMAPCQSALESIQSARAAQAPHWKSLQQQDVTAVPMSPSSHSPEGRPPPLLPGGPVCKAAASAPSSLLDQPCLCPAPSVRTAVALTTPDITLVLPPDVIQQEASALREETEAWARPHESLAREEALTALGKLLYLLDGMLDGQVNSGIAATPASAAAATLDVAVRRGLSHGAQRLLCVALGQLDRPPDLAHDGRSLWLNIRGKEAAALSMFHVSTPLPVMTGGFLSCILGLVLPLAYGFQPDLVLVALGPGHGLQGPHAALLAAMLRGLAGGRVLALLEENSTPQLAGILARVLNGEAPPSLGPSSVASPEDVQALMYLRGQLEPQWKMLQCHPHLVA
The arrangement: host or cells: Sf21 insect cells (baculovirus); method as in PMID 30964290. Particulars: previously shown; cited from earlier work.

The target of test [2] is T1, HDAC10. As to the kind of experiment: ligand displacement TR-FRET assay, HDAC10. On the set-up: host or cells: Sf21 insect cells (baculovirus). Particulars: ligand-displacement FRET assay; read-out: HDAC10 pIC50 (converted). The format is binding. The method, then:
Expression and purification of TwinStrepII‐GST‐HDAC10: A synthetic gene encoding TwinStrepII‐GST‐HDAC10 (human) was ordered from GeneArt (Thermo Fischer Scientific) and subcloned into the pFastBac1 vector. The resulting construct was used for transposition in E. coli DH10EMBacY cells. The isolated bacmid DNA was then used to generate the recombinant baculovirus. For protein expression, 10 mL of baculovirus was added to 1 L of Sf21 cells at a density of 1×10^6 cells/mL. The infected Sf21 cells were grown for 72 h in Sf‐900 III SFM medium (Thermo Fischer Scientific) at 27 °C. Cells were harvested by centrifugation and re‐suspended in running buffer (100 mM Tris pH 8.0, 150 mM NaCl, 1 mM EDTA and 1 mM DTT) supplemented with 10 mM MgCl2, benzonase and cOmplete protease inhibitors (Merck). […] The clarified lysate was then loaded onto a 5 mL Strep‐Tactin Superflow high capacity column (IBA) pre‐equilibrated in running buffer. After sample loading and washing, the TwinStrepII‐GST‐HDAC10 protein was eluted in running buffer supplemented with 5 mM desthiobiotin (IBA). The elution fractions containing TwinStrepII‐GST‐HDAC10 were pooled and concentrated before being injected onto a HiLoad 16/600 Superdex 200 pg size exclusion chromatography column (GE Healthcare) pre‐equilibrated with 25 mM HEPES/NaCl pH 7.5, 150 mM NaCl, 0.5 mM EDTA, 1 mM DTT and 10 % glycerol. Samples were eluted from the size exclusion chromatography column in the same buffer, flash‐frozen in liquid N2 and stored at −80 °C.
The TR‐FRET measurements of the monohydroxamic acids in this manuscript were measured in the original assay format, which is described directly below this paragraph. The TR‐FRET measurements of the dihydroxamic acids in this manuscript were measured in the modified format, which is described two paragraphs below this one.
The concentrations of reagents in 10 μL final assay volume were 3 nM GST‐HDAC10, 30 nM “Tubastatin‐Alexa647‐Tracer” and 0.5 nM Eu‐anti‐GST. GST‐HDAC10 and LanthaScreen™ Eu‐anti‐GST Antibody were purchased from Life Technologies, and the Tubastatin‐Alexa647‐Tracer was synthesized in‐house as previously described.19 An 11‐fold 1 : 3‐serial dilution of compounds starting at 2 mM was prepared in 384 well pp‐plates (Greiner) from 10 mM stocks in DMSO and 1 μL was transferred to assay plates. Nine μL of the reagent‐mix was added and the plate was incubated for 1 h at RT before TR‐FRET was measured in an EnVision™ plate reader equipped with a TR‐FRET Laser module. […] Percent inhibition was calculated for each well from negative control wells containing 2 % DMSO and positive control wells containing 20 μM SAHA. The resulting dose‐response curves were fitted in ActivityBase (IDBS) using a four‐parameter logistic model and pIC50‐values were calculated.
After drug dosing to the premixed assay reagents in buffer, plates were shaken (800 rpm orbital shaker, 30 s), centrifuged (300 g, 1 min) and incubated at room temperature in the dark for 60 min. TR‐FRET was measured with a CLARIOstar (BMG Labtech) plate reader, equipped with TR‐FRET filters.
(TR-FRET usually uses a lanthanide donor and a delayed reading to cut background.)

The next test has as its target T2, HDAC8 (Homo sapiens, UniProt Q9BY41).
T2 construct: purchased BPS Bioscience 50008
T2 sequence (Q9BY41 1-377): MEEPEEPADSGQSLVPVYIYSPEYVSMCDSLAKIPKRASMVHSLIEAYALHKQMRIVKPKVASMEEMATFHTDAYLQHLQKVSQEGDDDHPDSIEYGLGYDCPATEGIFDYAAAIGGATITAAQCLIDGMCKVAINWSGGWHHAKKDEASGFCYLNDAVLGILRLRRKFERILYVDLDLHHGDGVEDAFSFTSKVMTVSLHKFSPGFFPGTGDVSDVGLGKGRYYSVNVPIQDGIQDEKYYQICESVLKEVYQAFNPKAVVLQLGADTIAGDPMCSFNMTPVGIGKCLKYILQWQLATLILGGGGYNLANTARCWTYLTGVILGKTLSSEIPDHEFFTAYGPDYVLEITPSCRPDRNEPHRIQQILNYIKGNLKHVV
The test is described as follows: HDAC-Glo I/II enzymatic assay, HDAC8. The format is biochemical. Particulars: read-out: HDAC8 pIC50 (converted). The method, then:
Inhibitors were tested at eight serial dilutions in triplicate ranging from 50 μM–86,7 pM (HDAC6) or 100 μM–8,67 nM (HDAC1,2,3,8). Drug dosing was performed from 10 mM and 0.1 mM DMSO stock solutions with a D300e Digital Dispenser (Tecan). HDACs (7 ng/mL for HDAC1, 10 ng/mL for HDAC2, 200 ng/mL for HDAC3/Ncor2 complex, 100 ng/mL for HDAC6, 200 ng/mL for HDAC8) and inhibitors were incubated together for 30 min at room temperature. After addition of the HDAC‐Glo™ I/II reagent, plates were shaken (800 rpm orbital shaker, 30 s), centrifuged (300 g, 1 min) and incubated at room temperature for 30 min. Luminescence was detected with a CLARIOstar (BMG Labtech) plate reader.

On to `CN(C)Cc1cn(Cc2ccc(C(=O)NO)cc2)c2ccccc12` [Compound 1b], for which the “selectivity for HDAC10 over HDACs 1, 2, and 3” value on HDAC10 [1] is over 100 fold. In addition, the IC50 at HDAC10 [2] is 5.25 nM; at HDAC8 it was 955 nM.
